# Measured values as given in US20060188895A1, “Rapid prognostic assay for malignancies treated with epidermal growth factor receptor” (The Johns Hopkins University, priority 2004, published 2006).
# Where “and” joins values, the source holds several entries; their conditions need not be identical. Identical values can stand only once.
# How the values were obtained:
# A431 cells (c-fos mRNA) = assay: in vitro c-fos mRNA expression by quantitative RT-PCR; format: cell-based, human
# Cal27 cells (c-fos mRNA) = assay: as above; format: cell-based, human; conditions: for c-fos after longer exposure: 24-hour exposure
# Description: (§1) Five cell lines were used: A431, Cal27, HN11, HuCCT1, and Hep2. HN11 was a gift from Dr David Sidranski's laboratory at Johns Hopkins University (Baltimore, Md.), and A431, Cal27, HuCCT1, and Hep2 were obtained from the American Tissue Culture Collection (Manassas, Va.). A431 is a squamous cell carcinoma, Cal27, HN11 and Hep2 are derived from head and neck squamous carcinomas, and HuCCT1 is a cholangiocarcinoma. The cell lines were grown in 6-well plates with DMEM supplemented with 10% fetal bovine serum (FBS) and penicillin/streptomycin. […] The cells were incubated for 1 hour, media was aspirated, and RNA collected by direct in-well lysis with 0.5 mL of RLT (Qiagen). […] IN VITRO GROWTH INHIBITION STUDIES
# (§2) In vitro RNA extraction was performed on non-confluent cells after treatment. Wells were washed with PBS and RLT lysis buffer was added. Two passes from the FNA were put in lysis buffer (Mini Rneasy manufactured by Qiagen) loaded onto a column, washed and eluted into 50 μl TE pH8. Total RNA was extracted using the RNeasy™ Mini Kit (Qiagen, Valencia, Calif.). RNA was transcribed into cDNA by reverse transcription by priming with random hexamers (M-MLTV manufactured by Promega located in Madison, Wis.). The excess hexamers were removed using a column-based clean-up kit (Qiagen).
# (§3) Quantitative PCR was performed on an MX3000p thermal cycler (Stratagene) using SYBR green dye method to track the progress of the reactions with ROX dye added as reference. Beta-Globin DNA specific primers were used to test DNA contamination for each sample type. Three housekeeping genes (HPRT, UBC and SDHA) were run in parallel with test genes. The amount of change in the target gene between the control and experimental conditions was found by comparing the threshold cycle (Ct) of the target gene to the geometric mean of the threshold cycles of the housekeeping genes. The geometric mean of the Cts of each of the housekeeping genes, and a change in threshold cycle (delta Ct), between conditions were calculated (dCtHouskeeping=(CtHPRT*CtUBC*CtSDHA)control−(CtHPRT*CtUBC*CtSDHA)exp). The change in threshold cycle for the target gene was calculated directly from Ct under each condition (dCttarget=(Cttarget)control−(Cttarget)exp). The efficiency of the […] raised to its dCt gave a ratio between the control and experimental conditions normalized to the housekeeping genes (Ratio=ETarget^dCtTarget/EHousekeeping^dctHousekeeping, where E=Primer efficiency, and Ct=Threshold cycle).
# HN11 cells (c-fos mRNA) = assay: as above; format: cell-based, human; conditions: for c-fos after longer exposure: 24-hour exposure
# Description: as §1, §2, §3
# Hep2 cells (c-fos mRNA) = assay: as above; format: cell-based, human; conditions: for c-fos levels with time compared to baseline: 24-hour exposure
# Description: as §1, §2, §3
# [1] = tested on: HuCCT1 cells (c-fos mRNA); assay: as above; format: cell-based, human; conditions: for c-fos levels with time compared to baseline: 24-hour exposure
# Description: as §1, §2, §3
# Cal27 cells = format: cell-based, human; conditions: CAL27 (EGF-inducible c-fos line); 0-10 μM, 72 hours, 10% FBS
# HN11 cells = format: cell-based, human; conditions: HN11 (EGF-inducible c-fos line); 0-10 μM, 72 hours, 10% FBS
# HuCCT1 cells = assay: cells; format: cell-based; conditions: Homo sapiens, HuCCT-1, MTT, 72 hours, 10% FBS, read-out: IC50 growth inhibition
# Hep2 cells = assay: cells; format: cell-based; conditions: Homo sapiens, HEp-2, MTT, 72 hours, 10% FBS, read-out: IC50 growth inhibition
# [2] = tested on: CAL27 xenograft tumors (c-fos mRNA); assay: ex vivo molecular assay (c-fos) on FNA material; format: cell-based, mice; conditions: FNA material from seven CAL27 xenograft tumors; with EGF, 30 to 60 minutes
# Description: (§4) FNAs on mice were performed according to standard cytopathologic practice under inhaled general anesthesia (isofluorane) using 10 cc syringes and 25-gauge needles. During each FNA procedure the first pass was smeared onto glass slides and used for morphologic analysis, (DiffQuik™ and Papanicoloau), and the second and third passes for RNA extraction. Eighteen A431 tumors, fourteen CAL27 tumors, eighteen HN11 tumors, fourteen HuCCT1 tumors, and sixteen Hep2 tumors were tested. FNAs were performed at baseline and after 14 days of therapy for each of the tumors. Tumor biopsies on patients were performed following an ultrasonographic-guided, FNA-assisted methodology, with on-site cytopathologic assessment of tissue adequacy at baseline and after 28 days of therapy.
# In vitro RNA extraction was performed on non-confluent cells after treatment. […]
# (§5) Quantitative PCR was performed on an MX3000p thermal cycler (Stratagene) using SYBR green dye method to track the progress of the reactions with ROX dye added as reference. […] The geometric mean of the Cts of each of the housekeeping genes, and a change in threshold cycle (delta Ct), between conditions were calculated (dCtHouskeeping=(CtHPRT*CtUBC*CtSDHA)control−(CtHPRT*CtUBC*CtSDHA)exp). The change in threshold cycle for the target gene was calculated directly from Ct under each condition (dCttarget=(Cttarget)control−(Cttarget)exp). […]
# CAL27 xenograft tumors = assay: in vivo growth inhibition and tumor c-fos, xenograft; set-up: species or system athymic nude mice
# Description: (§6) Five groups of 14-16 six-week-old female athymic nude mice (Harlan, Ind., US) were used. 1.5-5×10^6 A431, CAL27, HN11, HuCCT1, and Hep2 cells were injected subcutaneously in each flank. […].
# as §4, §2, §3
# HN11 xenograft tumors = assay: as above; set-up: species or system athymic nude mice
# Description: as §6, §4, §2, §3
# Hep2 xenograft tumors = assay: as above; set-up: species or system athymic nude mice
# Description: as §6, §4, §2, §3
# A431 xenograft tumors = assay: as above; set-up: species or system athymic nude mice
# Description: as §6, §4, §2, §3
# HuCCT1 xenograft tumors = assay: as above; set-up: species or system athymic nude mice
# Description: as §6, §4, §2, §3
# [3] = tested on: c-fos in patient tumor samples; assay: c-fos in paired patient tumor samples; format: in vivo, patients
# Description: as §4, with “therapy. […]” for “therapy.”
# as §5
# [4] = tested on: Ki67 proliferation index in patient tumor samples; assay: Ki67 proliferation index in paired patient tumor samples (immunohistochemistry); format: in vivo, patients; conditions: patient #3; 500 mg/day (FIG. 7 legend)
# Description: FNAs on mice were performed according to standard cytopathologic practice under inhaled general anesthesia (isofluorane) using 10 cc syringes and 25-gauge needles. During each FNA procedure the first pass was smeared onto glass slides and used for morphologic analysis, (DiffQuik™ and Papanicoloau), and the second and third passes for RNA extraction. […] FNAs were performed at baseline and after 14 days of therapy for each of the tumors. Tumor biopsies on patients were performed following an ultrasonographic-guided, FNA-assisted methodology, with on-site cytopathologic assessment of tissue adequacy at baseline and after 28 days of therapy.
# Core biopsies from patients were processed using standard procedures (formalin-fixed, and paraffin embedded). Five-micron sections were used for Ki67 staining that was performed following the manufacturer's instructions (M7187 manufactured by DAKO located in Carpinteria, Calif.).
# [5] = tested on: metastatic or inoperable malignancy; assay: clinical response of patients treated with gefitinib; format: in vivo; conditions: five patients; 500 mg daily; 2, 4, 2, 2 and 5+ 1-month cycles
# Text: Patients were required to be 18 years of age or older, and have histologically documented metastatic or inoperable malignancy amenable to sequential biopsies, and for which there was no known curative or standard palliative regimen (or failure of such regimens have occurred). […] The scientific review board of our institution granted protocol approval and patients were required to provide written informed consent prior to enrollment into the study.
# [6] = 50 mgr/kg IP once a day for 14 days
# [7] = day 14 treated vs control, P<0.05
# [8] = 10 μM, 1-hour exposure, with EGF
# [9] = 100 mgr/kg IP once a day for 14 days
# [10] = EGF 100 ng/mL, normalized to media
molecule,measurement,setting,value
C#Cc1cccc(Nc2ncnc3cc(OCCOC)c(OCCOC)cc23)c1 [erlotinib],c-fos after longer exposure,A431 cells (c-fos mRNA); 24-hour exposure,lasting c-fos downregulation
same,c-fos after longer exposure,Cal27 cells (c-fos mRNA),lasting c-fos downregulation
same,c-fos after longer exposure,HN11 cells (c-fos mRNA),lasting c-fos downregulation
same,c-fos levels with time compared to baseline,Hep2 cells (c-fos mRNA),minimally increased
same,c-fos levels with time compared to baseline,[1],minimally increased
same,"in vitro sensitivity (growth inhibition, MTT)",Cal27 cells,high
same,"in vitro sensitivity (growth inhibition, MTT)",HN11 cells,high
same,IC50,HuCCT1 cells,> 10 µM
same,IC50,Hep2 cells,> 10 µM
same,effect on EGF-induced c-fos upregulation,[2],abrogation of this response
same,tumor growth,CAL27 xenograft tumors; [6],growth arrest
same,effect on progressive increase in tumor c-fos expression,"CAL27 xenograft tumors; day 14 treated vs control, P=0.07",significantly abrogate
same,tumor growth,HN11 xenograft tumors; [6],growth arrest
same,effect on progressive increase in tumor c-fos expression,HN11 xenograft tumors; [7],significantly abrogate
same,tumor growth response,Hep2 xenograft tumors; [6],no response
same,tumor c-fos levels,Hep2 xenograft tumors; 14 days of therapy,unchanged
COc1cc2ncnc(Nc3ccc(F)c(Cl)c3)c2cc1OCCCN1CCOCC1 [gefitinib],effect on EGF-induced c-fos increment,Cal27 cells (c-fos mRNA); [8],abrogated
same,c-fos after longer exposure,Cal27 cells (c-fos mRNA),lasting c-fos downregulation
same,effect of drug alone on c-fos levels,"Cal27 cells (c-fos mRNA); without EGF, 1 hour",decreased c-fos levels
same,effect on EGF-induced c-fos increment,HN11 cells (c-fos mRNA); [8],abrogated
same,c-fos after longer exposure,HN11 cells (c-fos mRNA),lasting c-fos downregulation
same,effect of drug alone on c-fos levels,"HN11 cells (c-fos mRNA); without EGF, 1 hour",decreased c-fos levels
same,c-fos levels with time compared to baseline,Hep2 cells (c-fos mRNA),minimally increased
same,effect of drug alone on c-fos levels,"Hep2 cells (c-fos mRNA); without EGF, 1 hour",no effect
same,c-fos levels with time compared to baseline,[1],minimally increased
same,effect of drug alone on c-fos levels,"[1]; without EGF, 1 hour",no effect
same,tumor growth,A431 xenograft tumors; [9],growth arrest
same,effect on progressive increase in tumor c-fos expression,A431 xenograft tumors; [7],significantly abrogate
same,tumor growth response,HuCCT1 xenograft tumors; [9],no response
same,tumor c-fos levels,HuCCT1 xenograft tumors; 14 days of therapy,unchanged
same,change in c-fos,"[3]; patient #3, 500 mg/day (FIG. 7 legend)",increase
same,"tumor c-fos after 28 days, of baseline values","[3]; two patients with decrease, 500 mg daily",56% and 37%
same,reduction of Ki67,[4],45%
same,objective response,[5],"No objective, confirmed responses"
"EGF: human epidermal growth factor 100 ng/mL (EGF; Sigma), EGFR ligand used as stimulus",c-fos mRNA level after brief exposure to EGF,A431 cells (c-fos mRNA); [10],126 fold
same,c-fos mRNA level after brief exposure to EGF,Cal27 cells (c-fos mRNA); [10],151 fold
same,c-fos mRNA level after brief exposure to EGF,HN11 cells (c-fos mRNA); [10],86 fold
same,c-fos increase upon exposure to EGF,Hep2 cells (c-fos mRNA); [10],4.1 fold
same,c-fos increase upon exposure to EGF,[1]; [10],3.6 fold
